Assay results published in patent publication US20180228799A1, “Treatment for Neurological and Mental Disorders” (PSYCHOGENICS, INC., priority 2008, published 2018).
“Also recorded” adds a separate entry of the source.

Assays:
[1] = test system: symptoms of ADHD in adults; experiment: Continuous Performance Test (CPT), same trial; type: in vivo, human; conditions: 5 or 10 mg/day, 14 days
Experimental: (§1) This double-blind, multiple-dose, placebo-controlled, crossover study was conducted to assess the effects of 14 days of oral eltoprazine treatment in 48 adults with ADHD. Subjects eligible for study enrollment were to have met Diagnostic and Statistical Manual of Mental Disorders, Fourth Edition, Text Revision (DSM-IV-TR) criteria for ADHD. Assessment was to be made by clinical history, a Structured Clinical Interview for DSM-IV Axis Disorders-Research Version (SCID-RV), and a Conners' Adult ADHD Diagnostic Interview for DSM IV (CAADID).
(§2) Oral doses of eltoprazine hydrochloride were 5 mg/day or 10 mg/day for 14 consecutive days (i.e., 2.5 or 5 mg twice daily (bid), respectively). Eltoprazine hydrochloride was administered in gelatin capsules with calcium hydrogen phosphate, 2H2O, maize starch NF, polyethylene glycol 6000 NF and magnesium stearate NF as excipients.
Secondary endpoints were evaluated with the Clinical Global Impressions-Improvement (CGI-I) and Continuous Performance Test. (CPT). The CGI-I test is used to determine the […] of improvement.

[2] = test system: symptoms of ADHD in adults; experiment: ADHD-RS-IV, double-blind placebo-controlled crossover trial in adults with ADHD; type: in vivo, human; conditions: for ADHD-RS-IV Inattention subscale, Baseline Score / ADHD-RS-IV Hyperactivity subscale, Baseline Score / ADHD-RS-IV Impulsivity subscale, Baseline Score / ADHD-RS-IV Total score, Baseline Score: before treatment
Experimental: The primary objective of this study was to compare the effects of two doses of eltoprazine with placebo on symptoms of ADHD in adults. The primary efficacy parameter is the Attention-Deficit/Hyperactivity Disorder Rating Scale-IV (ADHD-RS-IV).
as §1, §2
Primary endpoints were evaluated with the ADHD-RS-IV. After 14 days of treatment with placebo, 5 mg/day, or 10 mg/day eltoprazine, overall symptoms of ADHD were improved as measured by the ADHD-RS-IV, in which higher scores reflect greater impairment.
ADHD-RS-IV, CPT, and CGI-I scores were analyzed separately for those subjects whose baseline score was >40, indicating greater impairment. Twenty-two subjects had baseline ADHD-RS-IV total scores >40.

[3] = 5 mg/day oral, 14 days, all patients N = 38
[4] = 5 mg/day oral, all patients N = 38
[5] = 10 mg/day oral, 14 days, all patients N = 37
[6] = 10 mg/day oral, all patients N = 37
[7] = subjects with baseline score >40 (more severe ADHD), 5 mg/day, 14 days

c1cc2c(c(N3CCNCC3)c1)OCCO2 [Eltoprazine, 1-(2,3-dihydro-1,4-benzodioxanyl-5-yl) piperazine]
CPT findings [1]: did not result in any statistically significant findings | ADHD-RS-IV Inattention subscale, Post Treatment Score ([2]; 5 mg/day oral (2.5 mg bid), 14 days, all patients N = 38): 14.5 | ADHD-RS-IV Inattention subscale, Baseline Score ([2]; 5 mg/day oral (2.5 mg bid), all patients N = 38): 23.8 | ADHD-RS-IV Hyperactivity subscale, Change from Baseline [2, 3]: −5.9 | ADHD-RS-IV Hyperactivity subscale, Change from Baseline (percent decrease) [2, 3]: 47% | ADHD-RS-IV Hyperactivity subscale, Post Treatment Score [2, 3]: 6.6 | ADHD-RS-IV Impulsivity subscale, Change from Baseline [2, 3]: −2.7 | ADHD-RS-IV Impulsivity subscale, Change from Baseline (percent decrease) [2, 3]: 44% | ADHD-RS-IV Impulsivity subscale, Post Treatment Score [2, 3]: 3.4 | ADHD-RS-IV Inattention subscale, Change from Baseline [2, 3]: −9.4 | ADHD-RS-IV Inattention subscale, Change from Baseline (percent decrease) [2, 3]: 39% | ADHD-RS-IV Total score, Change from Baseline [2, 3]: −17.9 | ADHD-RS-IV Total score, Change from Baseline (percent decrease) [2, 3]: (42%) | ADHD-RS-IV Total score, Post Treatment Score [2, 3]: 24.5 | ADHD-RS-IV Total score, Change from Baseline (percent decrease) ([2]; 5 mg/day oral, 14 days, all patients N = 38, listed as eltoprazine): 42% | ADHD-RS-IV Hyperactivity subscale, Baseline Score [2, 4]: 12.5 | ADHD-RS-IV Impulsivity subscale, Baseline Score [2, 4]: 6.1 | ADHD-RS-IV Total score, Baseline Score [2, 4]: 42.4 | ADHD-RS-IV Inattention subscale, Post Treatment Score ([2]; 10 mg/day oral (5 mg bid), 14 days, all patients N = 37): 14.8 | ADHD-RS-IV Inattention subscale, Baseline Score ([2]; 10 mg/day oral (5 mg bid), all patients N = 37): 23.8 | ADHD-RS-IV Hyperactivity subscale, Change from Baseline [2, 5]: −5.5 | ADHD-RS-IV Hyperactivity subscale, Change from Baseline (percent decrease) [2, 5]: 43% | ADHD-RS-IV Hyperactivity subscale, Post Treatment Score [2, 5]: 7.2 | ADHD-RS-IV Impulsivity subscale, Change from Baseline [2, 5]: −2.9 | ADHD-RS-IV Impulsivity subscale, Change from Baseline (percent decrease) [2, 5]: 47% | ADHD-RS-IV Impulsivity subscale, Post Treatment Score [2, 5]: 3.2 | ADHD-RS-IV Inattention subscale, Change from Baseline [2, 5]: −9.0 | ADHD-RS-IV Inattention subscale, Change from Baseline (percent decrease) [2, 5]: 38% | ADHD-RS-IV Total score, Change from Baseline [2, 5]: −17.4 | ADHD-RS-IV Total score, Change from Baseline (percent decrease) [2, 5]: (41%) | ADHD-RS-IV Total score, Post Treatment Score [2, 5]: 25.3 | ADHD-RS-IV Total score, Change from Baseline (percent decrease) ([2]; 10 mg/day oral, 14 days, all patients N = 37, listed as eltoprazine): 41% | ADHD-RS-IV Hyperactivity subscale, Baseline Score [2, 6]: 12.8 | ADHD-RS-IV Impulsivity subscale, Baseline Score [2, 6]: 6.1 | ADHD-RS-IV Total score, Baseline Score [2, 6]: 42.7 | Selective action on ADHD symptoms (inattention, hyperactivity, impulsivity) ([2]; human clinical study in patients with ADHD): predominantly on inattention and hyperactivity and to a lesser degree impulsivity; also recorded: greater activity treating hyperactivity and inattention compared to impulsivity | ADHD-RS-IV hyperactivity subscale score, decrease from baseline (improvement) [2, 7]: 56% | ADHD-RS-IV impulsivity subscale score, decrease from baseline (improvement) [2, 7]: 55% | ADHD-RS-IV inattention subscale score, decrease from baseline (improvement) [2, 7]: 54% | ADHD-RS-IV total score, decrease from baseline [2, 7]: 55%
